From publication PMC5267425, “Identification of small molecule modulators of HIV-1 Tat and Rev protein accumulation” (Retrovirology, 2017)

Tested on: cellular gene expression in HeLa rtTA HIV∆Mls cells

## Cc1cc(NCc2cccnc2)n2ncc(-c3ccc(Cl)cc3)c2n1 [Compound 791, 3-(4-chlorophenyl)-5-methyl-N-(3-pyridinylmethyl)pyrazolo[1,5-a]pyrimidin-7-amine]
  DCAF6 expression fold change: 0.581
  DCAF17 Mean fold change: 1.433
  DCI expression fold change: 1.321
  DCLRE1A expression fold change: 1.408
  DCXR expression fold change: 1.050
  DDB2 expression fold change: 1.399
  DDR1 expression fold change: 0.690
  DDX10 expression fold change: 1.177
  DDX31 Mean fold change: 1.434
  DDX50 expression fold change: 1.253
  DENND4B expression fold change: 1.243
  DET1 expression fold change: 1.366
  DGCR2 expression fold change: 0.881
  DGKQ expression fold change: 1.343
  DHX35 expression fold change: 1.203
  DLG4 expression fold change: 1.263
  DMAP1 expression fold change: 0.891
  DNAH14 Mean fold change: 1.678
  DNAH17 Mean fold change: 1.839
  DNAJA3 Mean fold change: 1.796
  DNAJB14 expression fold change: 1.264
  DNASE2 expression fold change: 1.378
  DNMT3L expression fold change: 0.498
  DOCK1 expression fold change: 0.758
  DOCK8 expression fold change: 0.595
  DPH5 Mean fold change: 1.479
  DPM2 expression fold change: 1.136
  DPYSL2 Mean fold change: 1.729
  DSE expression fold change: 0.858
  DUS4L Mean fold change: 1.822
  DUSP1 expression fold change: 0.730
  DUSP8 expression fold change: 0.576
  DYM expression fold change: 1.260
  DYNC1I2 expression fold change: 0.857
  DYNLT1 expression fold change: 1.171
  DYRK2 expression fold change: 1.206
  EARS2 expression fold change: 1.134
  ECT2 expression fold change: 0.716
  EDA2R Mean fold change: 1.924
  EDEM1 expression fold change: 1.273
  EFCAB2 expression fold change: 1.159
  EIF1 Mean fold change: 1.516
  EIF2S2 Mean fold change: 1.734
  EIF2S3 expression fold change: 1.243
  EIF4EBP1 Mean fold change: 2.239
  ELMO2 expression fold change: 1.211
  ELP3 expression fold change: 1.135
  EMP2 expression fold change: 0.740
  ENOPH1 Mean fold change: 1.427
  EPB41L2 expression fold change: 0.862
  EPB41L4A expression fold change: 0.788
  EPB41 Mean fold change: 1.417
  EPM2AIP1 expression fold change: 1.093
  EPRS expression fold change: 1.271
  ERCC2 expression fold change: 0.790
  ERGIC1 expression fold change: 1.185
  ERICH1 expression fold change: 0.941
  ERMAP Mean fold change: 1.499
  ERRFI1 Mean fold change: 1.452
  ESAM expression fold change: 0.673
  ESCO1 expression fold change: 1.256
  ESF1 expression fold change: 1.072
  ESRRA expression fold change: 1.275
  ESYT2 expression fold change: 0.824
  ETV4 Mean fold change: 4.291
  ETV6 expression fold change: 1.253
  F2R expression fold change: 0.551
  FAIM3 expression fold change: 1.351
  FAM13B expression fold change: 0.771
  FAM27E2 Mean fold change: 2.360
  FAM83D expression fold change: 0.622
  FAM83G expression fold change: 1.328
  FAM86A Mean fold change: 1.567
  FAM86B1 Mean fold change: 2.493
  FAM86B2 Mean fold change: 2.843
  FAM86C Mean fold change: 1.599
  FAM102A expression fold change: 1.402
  FAM107B expression fold change: 1.234
  FAM114A1 expression fold change: 0.853
  FAM119B expression fold change: 1.218
  FAM127A expression fold change: 0.756
  FAM133B expression fold change: 1.056
  FAM176B expression fold change: 1.310
  FAM179B expression fold change: 1.253
  FAM192A expression fold change: 1.096
  FAM195B expression fold change: 0.859
  FAM199X expression fold change: 1.145
  FAR1 expression fold change: 1.245
  FARP1 expression fold change: 0.824
  FASTKD2 expression fold change: 1.173
  FBXL2 expression fold change: 0.756
  FBXO22 expression fold change: 1.399
  FBXO28 expression fold change: 1.101
  FBXO45 Mean fold change: 1.434
  FBXW4 expression fold change: 1.381
  FBXW11 expression fold change: 1.080
  FDFT1 expression fold change: 0.649
  FECH expression fold change: 0.957
  FEM1C expression fold change: 1.387
  FEZ2 expression fold change: 1.355
  FGFR3 expression fold change: 0.612
  FLCN expression fold change: 1.383
  FLII expression fold change: 0.919
  FLYWCH1 expression fold change: 1.367
  FOSL2 expression fold change: 1.375
  FOXF1 expression fold change: 1.318
  FOXJ2 expression fold change: 1.277
  FOXJ3 expression fold change: 1.187
  FOXN2 expression fold change: 1.082
  FRAT1 expression fold change: 0.900
  FSTL1 expression fold change: 0.717
  FUBP1 expression fold change: 0.781
  FXYD5 expression fold change: 1.215
  FZR1 expression fold change: 0.784
  GABARAPL2 expression fold change: 0.887
  GADD45A Mean fold change: 2.491
  GALNT2 expression fold change: 0.621
  GATA5 expression fold change: 1.360
  GATSL1 expression fold change: 0.637
  GBA2 expression fold change: 1.203
  GCC1 Mean fold change: 1.971
  GDF15 Mean fold change: 7.775
  GGA3 expression fold change: 1.172
  GJD3 expression fold change: 1.295
  GLCCI1 expression fold change: 0.781
  GLI2 expression fold change: 0.589
  GNA13 expression fold change: 1.223
  GNG10 expression fold change: 0.817
  GNL1 expression fold change: 1.145
  GOLGA5 expression fold change: 1.153
  GOLGA9P Mean fold change: 1.884
  GORAB expression fold change: 1.233
  GORASP1 expression fold change: 0.859
  GOSR1 expression fold change: 1.352
  GPC5 expression fold change: 1.250
  GPCPD1 Mean fold change: 2.287
  GPD1L expression fold change: 1.252
  GPR176 expression fold change: 0.771
  GPT2 Mean fold change: 2.731
  GRAMD1C expression fold change: 1.186
  GRB10 Mean fold change: 1.714
  GRINL1A Mean fold change: 1.542
  GRPEL2 Mean fold change: 1.903
  GTF2H3 expression fold change: 1.322
  GTF3C1 expression fold change: 0.813
  H3F3A expression fold change: 0.746
  HACL1 expression fold change: 0.803
  HADHA Mean fold change: 1.441
  HADHB Mean fold change: 1.600
  HAUS3 expression fold change: 1.330
  HAUS4 expression fold change: 1.250
  HAUS6 Mean fold change: 1.910
  HAX1 Mean fold change: 1.624
  HDAC1 expression fold change: 0.825
  HDHD2 expression fold change: 1.223
  HEBP1 expression fold change: 1.199
  HECTD1 expression fold change: 1.231
  HEG1 expression fold change: 0.638
  HIF1A expression fold change: 1.219
  HINT3 expression fold change: 1.199
  HIPK1 expression fold change: 1.092
  HIST1H3B expression fold change: 0.670
  HJURP expression fold change: 0.874
  HMGB3 expression fold change: 0.753
  HMGN3 expression fold change: 0.687
  HNRNPH2 expression fold change: 0.704
  HPS3 expression fold change: 1.235
  HRSP12 expression fold change: 1.297
  HSD17B1 expression fold change: 1.238
  HSPA9 Mean fold change: 2.175
  HSPB6 Mean fold change: 2.845
  HSPB8 expression fold change: 0.812
  IBTK expression fold change: 1.153
  ICAM1 Mean fold change: 1.829
  ICK expression fold change: 0.776
  ID3 expression fold change: 0.580
  IDH2 expression fold change: 0.637
  IDI1 expression fold change: 0.495
  IFNGR1 expression fold change: 1.224
  IFRD1 Mean fold change: 2.095
  IKBIP expression fold change: 0.658
  IMMT expression fold change: 1.075
  IMPA2 Mean fold change: 1.561
  INCENP expression fold change: 0.617
  INO80C expression fold change: 0.723
  INPP1 expression fold change: 1.347
  IPO13 expression fold change: 1.247
  IQCB1 expression fold change: 1.350
  ISCU Mean fold change: 1.477
  ITGA5 expression fold change: 1.145
  ITPKC expression fold change: 1.186
  IVNS1ABP expression fold change: 1.200
  JTB expression fold change: 1.203
  JUB expression fold change: 0.585
  KANK2 expression fold change: 0.798
  KCNJ2 Mean fold change: 1.873
  KCTD1 expression fold change: 1.252
  KCTD13 expression fold change: 1.373
  KCTD15 Mean fold change: 1.965
  KCTD20 expression fold change: 1.124
  KHDRBS1 expression fold change: 0.750
  KHSRP expression fold change: 0.864
  KIAA0232 expression fold change: 1.232
  KIAA0562 expression fold change: 1.119
  KIAA0649 expression fold change: 1.279
  KIAA0753 expression fold change: 1.283
  KIAA0895 expression fold change: 1.129
  KIAA1430 expression fold change: 1.140
  KIAA1826 expression fold change: 1.191
  KIAA2013 expression fold change: 0.927
  KIF3B expression fold change: 0.839
  KIF5C expression fold change: 0.782
  KIF11 expression fold change: 0.660
  KIF18B expression fold change: 0.771
  KIF20B expression fold change: 0.622
  KIFC1 expression fold change: 0.753
  KITLG expression fold change: 0.707
  KLF9 expression fold change: 0.665
  KLF11 Mean fold change: 1.487
  KLHDC3 expression fold change: 0.728
  KLHL35 Mean fold change: 1.651
  KPNA2 expression fold change: 0.620
  KRR1 expression fold change: 1.251
  LACE1 Mean fold change: 1.553
  LAPTM4B expression fold change: 0.781
  LARP6 Mean fold change: 3.094
  LARS expression fold change: 1.394
  LASS5 expression fold change: 0.895
  LGALS9 Mean fold change: 1.949
  LGTN expression fold change: 1.255
  LHPP Mean fold change: 1.532
  LIG3 expression fold change: 1.068
  LIN7B expression fold change: 1.185
  LMO7 expression fold change: 0.663
  LONP1 Mean fold change: 2.312
  LRP5L expression fold change: 1.303
  LRPPRC expression fold change: 1.312
  LRRC8D Mean fold change: 1.472
  LRRC16A expression fold change: 0.608
  LRRC37A3 Mean fold change: 1.746
  LRRC37B Mean fold change: 1.443
  LRSAM1 expression fold change: 1.153
  LYRM2 expression fold change: 1.176
  LYSMD1 expression fold change: 1.216
  LZTR1 expression fold change: 0.877
  MAGT1 expression fold change: 0.903
  MAK16 Mean fold change: 1.459
  MAML2 expression fold change: 0.717
  MANF expression fold change: 0.731
  MAP1B Mean fold change: 3.550
  MAP3K12 expression fold change: 1.348
  MAP3K14 expression fold change: 0.532
  MAP4K4 expression fold change: 0.822
